Measured values: BindingDB's records for patent US9610299 (Gilead Sciences, 2017)

What was measured:
[1] = biological target: T1, Amine oxidase [flavin-containing] A (Homo sapiens, UniProt P21397); test: MAO-A and MAO-B Assay
T1 sequence (P21397 whole entry): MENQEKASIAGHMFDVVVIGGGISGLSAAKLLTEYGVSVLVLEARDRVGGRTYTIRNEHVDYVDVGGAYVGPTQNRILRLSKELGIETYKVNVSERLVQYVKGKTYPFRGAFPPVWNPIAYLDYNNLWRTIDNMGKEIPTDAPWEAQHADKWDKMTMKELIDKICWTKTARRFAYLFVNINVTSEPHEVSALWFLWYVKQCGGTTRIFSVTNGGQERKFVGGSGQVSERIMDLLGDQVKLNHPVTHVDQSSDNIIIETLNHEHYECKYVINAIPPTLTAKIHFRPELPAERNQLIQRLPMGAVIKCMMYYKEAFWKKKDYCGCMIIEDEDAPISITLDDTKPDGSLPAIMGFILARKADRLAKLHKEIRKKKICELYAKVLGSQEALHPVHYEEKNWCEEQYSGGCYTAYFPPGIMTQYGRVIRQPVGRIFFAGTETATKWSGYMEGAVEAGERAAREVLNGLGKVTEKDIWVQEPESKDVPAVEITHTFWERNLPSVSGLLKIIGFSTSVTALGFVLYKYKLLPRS
Procedure: (§1) MAO assays included luminogenic MAO substrate, reaction buffers, Luciferin Detection and the reconstitution buffer with esterase. Standard MAO reaction mixtures included microsome contained MAO-A (2 ug) or MAO-B (10 ug), 160 uM substrate for MAO-A or 16 uM substrate for MAO-B, MAO-A buffer (100 mM Hepes buffer, pH 7.5, 5% glycerol) or MAO-B buffer (100 mM Hepes, pH 7.5, 5% glycerol, 10% dimethyl sulfoxide) in a final volume of 30 ul. After 20 minutes of pre-incubation of the enzyme with compounds, the reaction was initiated by adding enzyme substrate and the reaction was allowed to proceed for 60 minutes. Reconstituted Luciferin Detection Reagent (30 ul) was then added is added to simultaneously stop the MAO reaction and convert the methyl ester derivative to luciferin and produce light. The amount of light produced is directly proportional to the activity of MAO. The mixtures were further incubated for 20 minutes and activity of the enzyme was determined using Perkin-Elmer Envision Reader.

[2] = biological target: T2, Amine oxidase [flavin-containing] B (Homo sapiens, UniProt P27338); test: MAO-A and MAO-B Assay
T2 sequence (P27338 whole entry): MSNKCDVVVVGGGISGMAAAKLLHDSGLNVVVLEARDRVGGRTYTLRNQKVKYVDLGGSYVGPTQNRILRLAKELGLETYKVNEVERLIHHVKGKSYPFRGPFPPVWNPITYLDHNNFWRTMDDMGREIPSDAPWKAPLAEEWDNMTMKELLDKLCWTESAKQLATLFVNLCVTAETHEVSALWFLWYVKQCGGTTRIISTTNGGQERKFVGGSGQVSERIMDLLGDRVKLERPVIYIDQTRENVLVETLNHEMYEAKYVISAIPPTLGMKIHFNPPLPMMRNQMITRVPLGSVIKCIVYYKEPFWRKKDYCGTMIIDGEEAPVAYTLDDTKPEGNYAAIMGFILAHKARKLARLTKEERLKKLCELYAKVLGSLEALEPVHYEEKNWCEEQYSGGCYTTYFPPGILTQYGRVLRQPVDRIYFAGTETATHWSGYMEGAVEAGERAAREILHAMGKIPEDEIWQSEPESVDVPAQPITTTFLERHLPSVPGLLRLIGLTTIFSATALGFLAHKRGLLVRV
Procedure: as §1

[3] = biological target: T3, Aldehyde dehydrogenase, mitochondrial (Homo sapiens, UniProt P05091); test: ALDH2 Assay
T3 sequence (P05091 whole entry): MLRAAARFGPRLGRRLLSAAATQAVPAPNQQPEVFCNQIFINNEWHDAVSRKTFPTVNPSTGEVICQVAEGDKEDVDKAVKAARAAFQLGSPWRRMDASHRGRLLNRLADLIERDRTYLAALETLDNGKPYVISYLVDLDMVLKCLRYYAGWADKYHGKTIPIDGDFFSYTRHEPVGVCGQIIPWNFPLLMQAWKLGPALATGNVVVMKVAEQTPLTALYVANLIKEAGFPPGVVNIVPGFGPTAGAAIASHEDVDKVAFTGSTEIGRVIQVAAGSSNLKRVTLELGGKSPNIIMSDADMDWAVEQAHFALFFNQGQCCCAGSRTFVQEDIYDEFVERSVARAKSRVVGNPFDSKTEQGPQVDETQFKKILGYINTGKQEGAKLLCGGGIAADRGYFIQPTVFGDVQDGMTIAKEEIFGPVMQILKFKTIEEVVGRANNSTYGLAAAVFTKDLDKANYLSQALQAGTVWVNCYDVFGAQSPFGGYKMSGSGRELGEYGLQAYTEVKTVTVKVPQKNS
Procedure: Standard ALDH2 reaction mixtures contained 150 uM formaldehyde, 2.5 mM NAD+, 10 mM MgCl2 and 10 nM recombinant human ALDH2 in 50 mM Hepes buffer, pH 7.4, 0.01% Tween 20 in a final volume of 50 ul using 384-well plates. After 60 min of pre-incubation of compound with ALDH2 and formaldehyde, the reaction was started by adding NAD+ and the reaction mixture was allowed to proceed for 90 minutes. Activity of the enzyme was determined by monitoring NADH formation using Perkin-Elmer Envision Reader with excitation and emission wavelengths set at 340 and 460 nm, respectively.

With `Cc1cccc(C)c1C(=O)NCc1ccc(C2CCNC(=O)C2)cc1` (stereo not drawn) [US9610299, Example 6] the IC50 [1] was over 130 µM, the IC50 [2] was over 130 µM and the IC50 [3] was 1.11 µM.
